Measurements published in the supplement of paper PMC3974653.
Counter-ions that a name gives are not always drawn.

Tested on: MTT (mouse pheochromocytoma)
Test: IC50 of cell viability (ATP content)
Settings: (24 or 48 h)
How it was run: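 Library compounds were tested at 8 final concentrations (0.5 nM to 46 µM) on MTT mouse pheochromocytoma cells for 24 or 48 hrs, with readout by CellTiter-Glo ATP luminescence. Signals were normalised with positive-control wells at 100% and DMSO wells at 0%. IC50 values were obtained by a four-parameter logistic fit.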

| IC50 of cell viability [µM] | SMILES |
| --- | --- |
| > 46 | O=C(O)CCCC/C=C(\c1ccccc1)c1cccnc1 [Isbogrel] |
| > 46 | NC(=O)N/N=C/c1ccc([N+](=O)[O-])o1 [Nitrofurazone] |
| > 46 | Clc1cccc(Cl)c1N=C1NCCN1 [CLONIDINE] |
| > 46 | O=C1NCCN1CCN1CCC(c2cn(-c3ccc(F)cc3)c3ccc(Cl)cc23)CC1 [Sertindole] |
| > 46 | CC=1C2=CC3=N/C(=C/C4=C(C(=C(N4)/C=C/5\N=C(/C=C(/C1CCC(=O)O)\N2)C(=C5C)CCC(=O)OC)C=C)C)/C6=CC=C([C@H]([C@]36C)C(=O)OC)C(=O)OC.CC1=C2/C=C/3\N=C(/C=C/4\C(=C(/C(/N4)=C/C5=N/C(=C\C(=C1CCC(=O)OC)N2)/C(=C5C)CCC(=O)O)C=C)C)C6=CC=C([C@H]([C@]36C)C(=O)OC)C(=O)OC [Verteporfin] |
| > 46 | Oc1ccc(O)cc1 [Hydroquinone] |
| > 46 | O\C1=C(/C2CCC(CC2)C3=CC=C(Cl)C=C3)C(=O)C4=C(C=CC=C4)C1=O (stereo not given) [Atovaquone] |
| > 46 | CCOC(=O)\C1=C(/C)N\C(=C(/C1C2=CC=CC(=C2)[N+]([O-])=O)C(=O)OC)C (stereo not given) [NITRENDIPINE] |
| > 46 | CCN(CC)CCNC(=O)c1ccc(NC(C)=O)cc1.Cl [ACECAINIDE HYDROCHLORIDE] |
| > 46 | OC[C@@H](O)C(O[C@@H]1O[C@@H](CO)[C@H](O)[C@H](O)[C@H]1O)[C@H](O)[C@@H](O)CO (stereo not given in full) [Lactitol] |
| > 46 | CC(C)(C)C(=O)OCOP(=O)(COCCn1cnc2c(N)ncnc21)OCOC(=O)C(C)(C)C [ADEFOVIR DIPIVOXIL] |
| > 46 | Cc1nc(-c2ccc(OCC(C)C)c(C#N)c2)sc1C(=O)O [Febuxostat] |
| > 46 | CCCN1CCCC[C@H]1C(=O)Nc1c(C)cccc1C [ROPIVACAINE HYDROCHLORIDE MONOHYDRATE] |
| > 46 | CC(=O)Oc1cccc(O)c1 [RESORCINOL MONOACETATE] |
| > 46 | CN(C)CC/C=C1\c2ccccc2CSc2ccccc21 [Dosulepin hydrochloride] |
| > 46 | CO/N=C(/C(=O)N[C@@H]1C(=O)N2C(C(=O)[O-])=C(C[n+]3ccn4ncccc43)CS[C@H]12)c1nsc(N)n1 [CEFOZOPRAN HYDROCHLORIDE] |
| > 46 | Cc1cc(O)c2c(O)c3c(O)cccc3cc2c1 [Chrysarobin] |
| > 46 | Oc1cccc(-c2c3nc(c(-c4cccc(O)c4)c4ccc([nH]4)c(-c4cccc(O)c4)c4nc(c(-c5cccc(O)c5)c5ccc2[nH]5)CC4)C=C3)c1 [Temoporfin] |
| > 46 | N=C(N)NCCCCCCC(=O)NC(O)C(=O)NCCCCNCCCN (stereo not given) [Gusperimus trihydrochloride] |
| > 46 | CCC[C@@H](N[C@@H](C)C(=O)N1[C@@H](C(=O)O)C[C@@H]2CCCC[C@@H]21)C(=O)OCC [Perindopril] |
| > 46 | Cc1cn([C@H]2C[C@H](O)[C@@H](CO)O2)c(=O)[nH]c1=O [TELBIVUDINUM] |
| > 46 | COc1ccc2cc(C(C)C(=O)[O-])ccc2c1.[Na+] (stereo in doubt) [(R) -Naproxen sodium salt] |
| > 46 | N\C1=N\C2=C(N(CC=C)C(=O)N2C3OC(CO)C(O)C3O)/C(=O)N1 (stereo not given) [LOXORIBINUM] |

| IC50 of cell viability [µM] | SMILES |
| --- | --- |
| > 46 | C#CC[C@H](Cc1cnc2nc(N)nc(N)c2n1)c1ccc(C(=O)NC(CCC(=O)O)C(=O)O)cc1 (stereo not given in full) [Pralatrexate] |
| > 46 | O=C(O)[C@@H]1CSCN1 [TIMONACICUM] |
| > 46 | CNC(=O)c1c(I)c(C(=O)NCC(=O)Nc2c(I)c(C(=O)O)c(I)c(C(=O)NCCO)c2I)c(I)c(N(C)C(C)=O)c1I [Ioxaglic acid] |
| > 46 | O=C(O)Cc1csc(-c2ccc(Cl)cc2)n1 [Fenclozic acid] |
| > 46 | COc1ccc2cc(C(C)CO)ccc2c1 (stereo not given) [NAPROXOL] |
| > 46 | COc1cc(C(=O)NCc2ccc(OCCN(C)C)cc2)cc(OC)c1OC [Trimethobenzamide hydrochloride] |
| > 46 | Cc1cc(-c2ccc(/N=N/c3ccc4c([S+](=O)([O-])O)cc([S+](=O)([O-])O)c(N)c4c3O)c(C)c2)ccc1/N=N/c1ccc2c([S+](=O)([O-])O)cc([S+](=O)([O-])O)c(N)c2c1O [C.I. Direct Blue 53] |
| > 46 | O=[S+]([O-])(O)c1cc(I)c(O)c2ncccc12 [CHINIOFONUM] |
| > 46 | CC(=O)OCC(=O)[C@@]1(O)[C@@H](C[C@H]2[C@@H]3CC\C4=C\C(=O)\C=C/[C@]4(C)[C@@]3(F)[C@@H](O)C[C@]12C)OC(C)=O [Triamcinolone diacetate] |
| > 46 | NCCO [Ethanolamine] |
| > 46 | CC1(C)O[C@@H]2C[C@@H]3[C@@H]4C[C@@H](F)\C5=C\C(=O)CC[C@]5(C)[C@H]4[C@H](O)C[C@@]3(C)[C@]2(O1)C(=O)CO [Flurandrenolide] |
| > 46 | Nc1ccc(/N=N/c2ccccc2)c(N)n1 [Fenazopiridina] |
| > 46 | CCOC(=O)CCC(=O)OC1C(OC2C(C)C(OC3CC(C)(OC)C(O)C(C)O3)C(C)C(=O)OC(CC)C(C)(O)C(O)C(C)C(=O)C(C)CC2(C)O)OC(C)CC1N(C)C (stereo not given) [Erythromycin ethyl succinate] |
| > 46 | Cc1ccc(C(C)C)c(O)c1 [Thymol] |
| > 46 | c1ccc(OCc2ccc(CCCN3CCOCC3)cc2)cc1 [FOMOCAINUM] |
| > 46 | CCCC[C@H](CC)CN1CN(C[C@@H](CC)CCCC)CC(C)(N)C1 [Hexetidine] |
| > 46 | COC/1=C(/N2[C@H](SC1)[C@H](NC(=O)C(N)C/3\C=C/C/C=C3)C2=O)C(O)=O (stereo not given in full) [Cefradoxil] |
| > 46 | CC(=O)Nc1ccc(OCC(O)CNC(C)C)cc1 (stereo not given) [PRACTOLOL] |
| > 46 | Nc1ccc(O)cc1 [4-Aminophenol] |
| > 46 | CCN(CC)CCOC(=O)C1(C2CCCCC2)CCCCC1 [Dicyclomine] |
| > 46 | O=C1c2c(O)cccc2Cc2cccc(O)c21 [Anthralin] |
| > 46 | NC/1=N/C2=C([NH]C=N2)C(=S)N1 [THIOGUANINE] |

| SMILES | IC50 of cell viability [µM] |
| --- | --- |
| COc1cc2c(cc1OC)[C@@H](c1ccccc1)CN(C)CC2.O=C(O)/C=C\C(=O)O | > 46 |
| COc1ccc2c3c1O[C@H]1C(=O)CC[C@H]4[C@@H](C2)N(C)CC[C@]314 [HYDROCODONE BITARTRATE] | > 46 |
| OC[C@@H](O)[C@H]1O[C@@H]2OC(C(Cl)(Cl)Cl)O[C@H]2[C@H]1O (stereo not given in full) [CHLORALOSUM] | > 46 |
| COC(=O)c1cncn1C(C)c1ccccc1 (stereo not given) [METOMIDATE HYDROCHLORIDE] | > 46 |
| CN[C@@H]1C[C@@H](c2ccc(Cl)c(Cl)c2)c2ccccc21.Cl [Indatraline hydrochloride] | > 46 |
